Measured values from patent publication US20180118721A1, “PYRIMIDINE DERIVATIVES” (Merck Patent GmbH, priority 2015, published 2018).
In brackets after ≈: the same amount, converted by molar mass.

Experiment: Shake flask solubility measurement
Assay type: physicochemical
Conditions: aqueous buffer, thermodynamic from solid, phosphate buffer pH 7.4, 37° C.
Procedure: Compound solubility in aqueous solution is determined by a standard method in the art, the shake flask method. Solubility measurement is performed under equilibrium conditions at pH 7.4. Samples are prepared by dissolving an excess of the test compound in a phosphate buffer (made up of 3,954 g sodium hydrogenphosphate-monohydrate, 6,024 g sodium chloride, 950 ml ultrapure water and adjusted to pH 7.4 with 0.1 M NaOH or 0.1 M HCl). These samples are shaken at 37° C. with 450 rpm (shaker: TiMix control Bühler) for 24 h in total until equilibrium is reached. After 7 hours shaking, the pH value of the sample is controlled and adjusted, if necessary. It is also checked that the sample (test compound) is available in excess. Shortly before the end of 24 h, samples are checked again for pH and precipitate. At the end of 24 h and after separation of the solid by filtration, the concentration of the compound in the filtrate is determined by liquid chromatography using […] (LC-UV).
Sample preparation: Incubation hood: TH 15 Bühler; pH device 766 Calimatic Knick; pH electrode InLab 423 Mettler
Chromatography Conditions:
Column: Chromolith RP18e 100×3 mm
Wavelength range: 190-400 nm • select a suitable evaluation wavelength
Injection volume: Probe 5 μl and 15 μl; Standard 5 μl
Column stove temperature: 37° C.
Eluent A: water/formic acid (999:1; v/v)
Eluent B: acetonitrile/formic acid (999:1; v/v)

CNc1cc(-c2cccc(Cl)c2Cl)nc(N)n1 [TH-287, reference compound]
solubility at 24 h: 22 µg/mL (≈ 81.7 µM)
